Positions count from the first letter of the chain named. “Also recorded” adds a separate entry of the source.
What was measured:
M1 [1] = biological target: T1, M1 (Homo sapiens, UniProt P11229); assay: Discover X bias panel: M1 receptor internalization; assay type: cell-based
T1 sequence (P11229 1-460): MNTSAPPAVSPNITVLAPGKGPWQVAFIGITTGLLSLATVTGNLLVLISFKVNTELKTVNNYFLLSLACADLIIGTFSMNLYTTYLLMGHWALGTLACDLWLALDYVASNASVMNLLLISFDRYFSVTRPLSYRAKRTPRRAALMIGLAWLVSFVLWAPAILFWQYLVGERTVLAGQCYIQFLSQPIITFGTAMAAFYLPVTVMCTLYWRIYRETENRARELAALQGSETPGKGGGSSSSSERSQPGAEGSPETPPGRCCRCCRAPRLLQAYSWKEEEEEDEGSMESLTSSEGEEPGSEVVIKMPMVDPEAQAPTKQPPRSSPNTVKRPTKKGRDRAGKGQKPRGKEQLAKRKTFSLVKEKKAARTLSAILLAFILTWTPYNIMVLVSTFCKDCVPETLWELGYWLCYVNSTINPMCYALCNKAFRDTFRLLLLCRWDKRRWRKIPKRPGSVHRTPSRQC

rat M1 [2] = biological target: T2, rat M1 (Rattus norvegicus, UniProt P08482); assay: Calcium mobilization, rM1-CHO cells, PAM mode; assay type: cell-based; settings: EC20 acetylcholine
T2 sequence (P08482 1-460): T1 sequence (P11229 1-460) with A5V, T254S, P309S, R320K, A337G, I413V

rat M1 [3] = biological target: T2, rat M1; assay: Calcium mobilization, rM1-CHO cells, agonist mode; assay type: cell-based
M1 [4] = biological target: T1, M1; assay: [3H]-NMS competition binding, human M1 membranes
M1 [5] = biological target: T1, M1; assay: Discover X bias panel: β-arrestin recruitment assay; assay type: cell-based
[6] = Mouse brain:plasma partition, discrete i.p. dose; settings: male, C57BL/6J, in vivo, ip, 10 mg/kg
C57Bl/6 mice [7] = assay: Behavioral convulsions, modified Racine scale; assay type: in vivo, mouse; settings: 100 mg/kg i.p., 3 h, modified Racine scale (0–5)
SD rats = assay: Amphetamine-induced hyperlocomotion in rats; assay type: in vivo, rat; settings: 30 mg/kg i.p., amphetamine 1 mg/kg s.c.
hM1 = biological target: T3, hM1 (Homo sapiens, UniProt P11229); assay: Acetylcholine affinity shift at hM1; assay type: binding
T3 sequence (P11229 1-460): T1 sequence (P11229 1-460)

mouse M1 [8] = biological target: T4, mouse M1 (Mus musculus, UniProt P12657); assay: Mouse M1 agonist activity, calcium mobilization; assay type: cell-based
T4 sequence (P12657 1-460): T1 sequence (P11229 1-460) with A5V, T254S, R320K, A337G, I413V

C57Bl/6 mice [9] = assay: Spontaneous locomotor activity; assay type: in vivo, mouse; settings: 1–10 mg/kg i.p.
mouse M1 [10] = biological target: T4, mouse M1; assay: Calcium mobilization, mM1-CHO cells, PAM mode; assay type: cell-based
[11] = Mouse brain concentrations after i.p. dosing; assay type: in vivo; settings: 100 mg/kg i.p., mice
mice [12] = assay: Amphetamine-induced hyperlocomotion in mice; assay type: in vivo, mouse; settings: 1–10 mg/kg i.p., amphetamine 3 mg/kg s.c.
rats = assay: Novel object recognition task; assay type: in vivo, rat; settings: rats, 1, 3, and 10 mg/kg i.p., 30 min pretreatment, assessed 24 h later
M1 [13] = biological target: T1, M1; assay: Calcium mobilization, hM1-CHO cells, PAM mode; assay type: cell-based
[14] = system: 68 GPCRs, ion channels, and transporters; assay: Eurofin Lead Profiling radioligand binding panel; settings: 10 μM, 68 targets
mice [15] = assay: Modified Irwin Toxicology Battery; assay type: in vivo; settings: 100 mg/kg i.p.
M1 [16] = biological target: T1, M1; assay: Calcium mobilization, hM1-CHO cells, agonist mode; assay type: cell-based
mice [17] = settings: cited from earlier work

Cn1cc(-c2ccc(Cn3cc(C(=O)N[C@H]4CCCC[C@@H]4O)c4c(F)cc(F)cc43)cn2)cn1 [Compound 28a, 4,6-Difluoro-N-(1S,2S)-2-hydroxycyclohexyl-1-((6-(1-methyl-1H-pyrazol-4-yl)pyridine-3-yl)methyl)-1H-indole-3-carboxamide]
EC50 (M1 [1]): > 10000 nM
rACh Max (%) (rat M1 [2]; PAM mode, ± SEM): 92 ± 4%
EC50 (rat M1 [2]; rM1 EC50 (nM), PAM mode): 141 nM
EC50 (rat M1 [2]; rM1 pEC50, PAM mode, ± SEM): 138 nM
EC50 (rat M1 [3]): 3980 nM
rACh Max (%), agonist (rat M1 [3]; agonist mode, rM1-CHO cells, ± SEM): 68 ± 9%
displacement of orthosteric radioligand [3H]-NMS (M1 [4]): slight inhibition of binding of the orthosteric radioligand at high concentrations; also recorded: weakly displaced
M1 PAM potency and efficacy in β-arrestin recruitment (M1 [5]): comparable M1 PAM potency and efficacy
Kp at 0.25 h [6]: 4.84
Kp uu at 0.25 h [6]: 2.61
behavioral convulsions (C57Bl/6 mice [7]): did not display observable behavioral seizure activity; also recorded: neither difluoro indole 28a nor 28c (both regioisomeric N-Me pyrazoles) induced behavioral convulsions
reversal of amphetamine-induced hyperlocomotion (AHL) (SD rats): no effect
fold shift in ACh potency vs DMSO control (hM1; 0.3 μM PAM): 11 fold
fold shift in ACh potency vs DMSO control (hM1; 1.0 μM PAM): 58 fold
fold shift in ACh potency vs DMSO control (hM1; 10 μM PAM): 178 fold
EC50 (mouse M1 [8]): 450 nM
mouse M1 agonist % ACh Max (mouse M1 [8]; agonist activity at mouse M1): 86%
effect on spontaneous (basal) locomotor activity (C57Bl/6 mice [9]): significantly less effect on spontaneous locomotor activity
effect on spontaneous (basal) locomotor activity (C57Bl/6 mice [9]; listed as VU6004256): decreased locomotor activity at the highest dose of 10 mg/kg
EC50 (mouse M1 [10]): 155 nM
mACh Max (%) (mouse M1 [10]; PAM mode, mM1-CHO cells, EC20 acetylcholine, ± SEM): 79 ± 1%
total maximum brain concentration [11]: 49.9 µM
unbound maximum brain concentration [11]: 649 nM
reversal of amphetamine-induced hyperlocomotion (AHL) (mice [12]): did not reverse AHL in mice
recognition memory, novel object recognition (rats): dose-dependently enhanced recognition memory
EC50 (M1 [13]): 214 nM
hACh Max (%) (M1 [13]; PAM mode, hM1-CHO cells, EC20 acetylcholine, ± SEM): 86±1%
percent inhibition in ancillary pharmacology panel [14]: ≤ 50%
adverse effects, Modified Irwin Toxicology Battery (mice [15]; 100 mg/kg): no pronounced cholinergic effects
adverse effects, Modified Irwin Toxicology Battery (mice [15]; listed as VU6004256, 100 mg/kg): did not cause significant observable adverse effects
hACh Max (%), agonist (M1 [16]; hM1-CHO cells, ± SEM): 56 ± 14%
EC50 (M1 [16]; hM1 EC50 (μM), agonist, hM1-CHO cells): 4.8 µM
EC50 (M1 [16]; hM1 pEC50, agonist, hM1-CHO cells, ± SEM): 4.68 µM
fold weaker M1 agonist than 16 (M1 [16]; human and rat M1): 7 fold

CCCCCCOc1nsnc1C1=CCCN(C)C1 [xanomeline]
attenuation of amphetamine-induced activity in M4 knockout mice (mice [17]): absent

From publication PMC5460155 (ACS chemical neuroscience, 2017)
